Reference: ChEMBL document CHEMBL1201862, “PubChem BioAssay data set” (2004)
Where “and” joins values, the source holds several entries; their conditions need not be identical. Identical values can stand only once.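 Five compound concentrations were applied to cells in 96-well plates for 48 hours; endpoints were derived by simple linear interpolation of the resulting dose-response curve. GI50 is the concentration that inhibits growth by half.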 Calls of active or inactive are those of the source. No stated cut-off is given here; in the data, active = GI50 up to about 1.1 µM and inactive = higher.

How the values were obtained:
Assay in all cases: DTP human tumour cell line panel, 48 h
EKVX = system: EKVX
BT-549 = system: BT-549
SK-OV-3 = system: SK-OV-3
HCT-15 = system: HCT-15
DU-145 = system: DU-145
MCF7 = system: MCF7
786-0 = system: 786-0
NCI/ADR-RES = system: NCI/ADR-RES
NCI-H226 = system: NCI-H226
OVCAR-8 = system: OVCAR-8
A498 = system: A498
UACC-257 = system: UACC-257
U-251 = system: U-251
Hs-578T = system: Hs-578T
RPMI-8226 = system: RPMI-8226
MDA-N = system: MDA-N
HT-29 = system: HT-29
HOP-92 = system: HOP-92
RXF 393 = system: RXF 393

Structure (SMILES) | GI50 (EKVX) | GI50 (BT-549) | GI50 (SK-OV-3) | GI50 (HCT-15) | GI50 (DU-145) | GI50 (MCF7) | GI50 (786-0) | GI50 (NCI/ADR-RES) | GI50 (NCI-H226) | GI50 (OVCAR-8) | GI50 (A498) | GI50 (UACC-257) | GI50 (U-251) | GI50 (Hs-578T) | GI50 (RPMI-8226) | GI50 (MDA-N) | GI50 (HT-29) | GI50 (HOP-92) | GI50 (RXF 393)
Cc1nc2cc(Cl)c(N)cc2[nH]1 | > 100 µM (inactive) | > 100 µM (inactive) | > 100 µM (inactive) | > 100 µM | > 100 µM (inactive) | > 100 µM (inactive) | > 100 µM (inactive) | > 100 µM (inactive) | > 100 µM (inactive) | > 100 µM (inactive) | > 100 µM (inactive) | > 100 µM (inactive) | > 100 µM (inactive) | > 100 µM (inactive) | > 100 µM (inactive) | > 100 µM (inactive) | > 100 µM (inactive) | – | –
CC(=O)NC(CSC1=C2NC(=O)\C=C/C=C\C=C/C(C)C(O)CC(=O)/C(C)=C\CC(O)/C=C\C(C)C(O)C(C)C=C(C)C(=O)c3c(O)c(C)cc(c3C1=O)C2=O)C(=O)O (centres undefined) | > 100 µM (inactive) | > 100 µM (inactive) | > 100 µM (inactive) | > 100 µM | 61.8 µM (inactive) | 53.3 µM (inactive) | 89.7 µM (inactive) | > 100 µM (inactive) | > 100 µM (inactive) | > 100 µM (inactive) | > 100 µM (inactive) | 41.8 µM (inactive) | 43.2 µM (inactive) | 27.5 µM (inactive) | – | 51.4 µM (inactive) | 47.2 µM (inactive) | > 100 µM (inactive) | –
Cn1nc2ccc([N+](=O)[O-])cc2[n+]1[O-] | > 100 µM (inactive) | > 100 µM (inactive) | > 100 µM (inactive) | > 100 µM | > 100 µM (inactive) | > 100 µM (inactive) | > 100 µM (inactive) | > 100 µM (inactive) | > 100 µM (inactive) | > 100 µM (inactive) | 87.9 µM (inactive) | > 100 µM (inactive) | > 100 µM (inactive) | > 100 µM (inactive) | – | 90.4 µM (inactive) | > 100 µM (inactive) | – | > 100 µM (inactive)
CC(=O)CCC(=O)C(=[N+]=[N-])S(=O)(=O)c1ccccc1 | > 100 µM (inactive) | > 100 µM (inactive) | – | > 100 µM | > 100 µM (inactive) | > 100 µM (inactive) | > 100 µM (inactive) | > 100 µM (inactive) | – | > 100 µM (inactive) | – | > 100 µM (inactive) | > 100 µM (inactive) | > 100 µM (inactive) | > 100 µM (inactive) | > 100 µM (inactive) | > 100 µM (inactive) | – | > 100 µM (inactive)
NC(=O)C1CCCN1C(=O)N(CCCl)N=O (centres undefined) | > 100 µM (inactive) | > 100 µM (inactive) | > 100 µM (inactive) | > 100 µM | > 100 µM (inactive) | > 100 µM (inactive) | > 100 µM (inactive) | > 100 µM (inactive) | > 100 µM (inactive) | > 100 µM (inactive) | > 100 µM (inactive) | > 100 µM (inactive) | > 100 µM (inactive) | > 100 µM (inactive) | > 100 µM (inactive) | > 100 µM (inactive) | > 100 µM (inactive) | > 100 µM (inactive) | –
CCNC(=O)CCC(C)[C@H]1CCC2C3C(C[C@H](OC(C)=O)[C@@]21C)[C@@]1(C)CCC2(C[C@H]1C[C@H]3OC(C)=O)OOC1(CCC(C)CC1)OO2 (some centres undefined) | 1.39 µM (inactive) and 1.3 µM (inactive) | 2.03 µM (inactive) and 1.57 µM (inactive) | 4.02 µM (inactive) and 2.54 µM (inactive) | 1.99 µM and 2 µM | 1.73 µM (inactive) and 2.37 µM (inactive) | 2.56 µM (inactive) and 2.7 µM (inactive) | 2.38 µM (inactive) and 1.58 µM (inactive) | 3.31 µM (inactive) and 1.73 µM (inactive) | 1.52 µM (inactive) and 1.69 µM (inactive) | 2.61 µM (inactive) and 1.51 µM (inactive) | – | 4.63 µM (inactive) and 2.62 µM (inactive) | 2.09 µM (inactive) and 1.6 µM (inactive) | 2.62 µM (inactive) and 2.68 µM (inactive) | – | 1.88 µM (inactive) and 2.65 µM (inactive) | – | 1.68 µM (inactive) and 1.44 µM (inactive) | –
Clc1ccc(Nc2ncco2)cc1Cl | > 10 µM (inactive) | > 10 µM (inactive) | > 10 µM (inactive) | > 10 µM | > 10 µM (inactive) | > 10 µM (inactive) | > 10 µM (inactive) | > 10 µM (inactive) | > 10 µM (inactive) | > 10 µM (inactive) | > 10 µM (inactive) | > 10 µM (inactive) | > 10 µM (inactive) | > 10 µM (inactive) | – | > 10 µM (inactive) | > 10 µM (inactive) | > 10 µM (inactive) | –
COc1cc(O)c2c(=O)c(OC)c(-c3ccc4c(c3)OCO4)oc2c1 | > 60.8 µM (inactive) | 4.04 µM (inactive) | 13.9 µM (inactive) | > 100 µM | > 100 µM (inactive) | > 100 µM (inactive) | 15.3 µM (inactive) | > 100 µM (inactive) | > 57.9 µM (inactive) | 6.15 µM (inactive) | 38.5 µM (inactive) | > 100 µM (inactive) | 9.27 µM (inactive) | 21.6 µM (inactive) | > 100 µM (inactive) | > 100 µM (inactive) | > 100 µM (inactive) | – | 11.2 µM (inactive)
